Reference: publication PMC10489073 (Molecules, 2023)

What was measured:
[1] = test system: macrophage phagocytic activity (MPA) of the reticular endothelial system; assay: Macrophage phagocytosis by carbon clearance test; assay type: in vivo, Kunming mice; conditions: twice a week for two weeks; for Carbon Clearance Index (K): Ctrl 0.057 ± 0.0061; for Phagocytosis Index (α): Ctrl 5.36 ± 0.19
Experimental: The animal experiments were conducted under the guidelines of the “Regulations for the Administration of Affairs Concerning Experimental Animals” (revised 2017, State Council No. 676). Kunming mice were randomly divided into control groups and treatment groups. After oral administration of test compounds twice a week for two weeks, the mice were injected with carbon ink suspension (Indian Ink, Camel) (100 μL/10 g of body weight) via the tail vein. Two and ten minutes after the injection of carbon suspension, the blood samples were collected from a retro-orbital vein. A total of 25 μL of a blood sample was directly added into 2 mL of 0.1% sodium carbonate solution. The absorbance of the sample was measured at 600 nm using a UV-visible spectrophotometer. The K value was calculated by the formula Log (OD2) − Log (OD10)/(T2 − T1), where OD2 and OD10 were the absorbance of blood at 2 and 10 min, respectively; T2 is the last time point of blood collection; T1 is the first time point of blood collection. The α value was calculated by the formula (k^1/3 × body weight)/(liver weight + spleen weight).

[2] = test system: subcutaneous P3x63Ag8.653 tumor; assay: In vivo P3x63Ag8.653 tumor transplant model; parameters: species or system mice
Experimental: The animal experiments were conducted under the guidelines of the “Regulations for the Administration of Affairs Concerning Experimental Animals” (revised 2017, State Council No. 676). For the P3x63Ag8.653 tumor development, male mice were subcutaneously injected with 200 μL murine P3x63Ag8.653 cells with a density of 1 × 10^7/mL. On the eighth day after injection, the transplanted mice were randomized into treatment and control groups. The tested compounds were administrated orally at the prescribed dose biweekly for two weeks. After two weeks of administration, mice were executed, and the tumor tissues were dissected and weighed. T/C was calculated according to the following formula: T/C = the mean RTV of the treated group/the mean RTV of the control group, where RTV is the relative tumor volume = Vt/V0 (Vt, the tumor volume measured at the end of treatment; V0, the tumor volume measured at the beginning of treatment).

[3] = test system: H22 pulmonary metastasis tumor model; assay: In vivo H22 pulmonary metastasis model; parameters: species or system Kunming mice; conditions: p.o., BIW, 2 weeks, vehicle group 71.5
Experimental: The animal experiments were conducted under the guidelines of the “Regulations for the Administration of Affairs Concerning Experimental Animals” (revised 2017, State Council No. 676). H22 cells (3 × 10^6 cells/100 μL per mouse) were intravenously (i.v.) inoculated via the tail vein of Kunming mice aged 6 weeks on day 0. To ensure the growth of pulmonary metastasis before the drug treatment, the tumor was allowed to develop for 7 days. On day 8, the randomly grouped mice were treated with ixazomib (0.008 mmol/kg, p.o., BIW) or BC-05 (0.006, 0.008, and 0.01 mmol/kg, p.o., BIW) for consecutive 2 weeks. On day […], the mice were weighed and sacrificed, and the lungs were removed and weighed. After being fixed in the Bouin stationary solution for one day, the lung metastasized nodes of each mouse were numbered.

MM1.S cells = assay: Cell apoptosis assay (Annexin V-FITC/PI flow cytometry); assay type: cell-based; conditions: 48 h
Experimental: For the cell apoptosis assay, MM1.S cells were plated in 12-well plates with a density of 6 × 10^5 cells per well and treated with BC-05 (1, 2, and 4 μM), ixazomib (10 nM) or a vehicle (0.5% DMSO) for 48 h after 12 h fixation. Then, cells were harvested, washed with a cold PBS buffer, and resuspended in 500 μL of an annexin V binding buffer. After being stained with 5 μL of Annexin V-FITC and 5 μL of propidium iodide, the cells were detected by a flow cytometer (Beckman Coulter Inc., Sharon Hill, PA, USA).

P3x63Ag8.653 = assay: Cell proliferation analysis (MTT); assay type: cell-based, murine; conditions: Mus musculus, 48 h, read-out: Anti-proliferative activity IC50, P3x63Ag8.653
Experimental: All tumor cell lines in the current research were grown in a certain growth medium containing 10% FBS and 1% (v/v/v) penicillin–streptomycin–amphotericin at 37 °C in 5% CO2. Cells were seeded into 96-well plates at a density of 8 × 10^3 cells per well for tumor adherent cells and 2 × 10^4 cells per well for tumor-suspended cells in a final volume of 100 μL. After 12 h, 100 μL of various concentrations of compounds was added to each and incubated for 48 h. A 0.5% MTT solution was added per well before the intermixture was incubated for another 4 h, and formazan formed from MTT was extracted by adding […] of DMSO rocking for 15 min. Absorbance was measured at 570 nm using a Spark multimode microplate from Tecan. The IC50 values were calculated according to the inhibition ratios.

In vivo pharmacokinetics = conditions: SD rats; for AUC(0-inf): SD
Experimental: The animal experiments were conducted under the guidelines of the “Regulations for the Administration of Affairs Concerning Experimental Animals” (revised 2017, State Council No. 676). The pharmacokinetic properties (PK) were performed in SD rats, and the procedures conducted were in accordance with institutional guidelines. Male SD rats (weighting 200 ± 20 g) fasted for 12 h and were divided into two groups, three in each group: oral administration of BC-05 (10 mg/kg) and intravenous administration of BC-05 (10 mg/kg). A total of 300 μL of a blood sample was collected through retro-orbital plexus from the rats in each group at 0 h, 0.033 h, 0.167 h, 0.5 h, 0.75 h, l h, 2 h, 4 h, 6 h, 8 h, 10 h, and 24 h. Plasma samples were placed in microcentrifuge tubes containing Li-heparin to avoid coagulant, separated by centrifugation at 12,000 rpm for 10 min, and stored at −80 °C until sample analysis. After the precipitation of proteins, samples were centrifuged at 15,000 rpm for 10 min, and the supernatant was reserved for HPLC-MS/MS analysis.

[4] = male, rat, plasma, iv, i.v. at 10 mg/kg, n = 3
[5] = male, rat, plasma, oral at 10 mg/kg, n = 3

CC(C)C[C@H](NC(=O)[C@@H](O)[C@H](N)Cc1ccccc1)B1OC(=O)C(CC(=O)O)(CC(=O)O)O1 [BC-05, 2,2′-(2-((R)-1-((2S,3R)-3-amino-2-hydroxy-4-phenylbutanamido)-3-methylbutyl)-5-oxo-1,3,2-dioxaborolane-4,4-diyl)diacetic acid]
Carbon Clearance Index (K) ([1]; 0.006 mmol/kg oral): 0.066 ± 0.0077
Phagocytosis Index (α) ([1]; 0.006 mmol/kg oral): 6.60 ± 0.26
Carbon Clearance Index (K) ([1]; 0.008 mmol/kg oral): 0.076 ± 0.0016
Phagocytosis Index (α) ([1]; 0.008 mmol/kg oral): 6.61 ± 0.05
T/C (relative tumor volume) ([2]; 0.008 mmol/kg oral, two weeks): 31.2%
body weight loss and side effects ([2]; tumor-bearing mice, during oral administration): No obvious body weight loss and discernible side effects
number of H22 pulmonary nodes ([3]; 0.006 mmol/kg): 17.3
number of H22 pulmonary nodes ([3]; 0.008 mmol/kg): 15.2
number of H22 pulmonary nodes ([3]; 0.01 mmol/kg): 12.7
cell apoptosis (MM1.S cells; 1 µM): 12.4%
cell apoptosis (MM1.S cells; 2 µM): 73.1%
cell apoptosis (MM1.S cells; 4 µM): 88.0%
IC50 (P3x63Ag8.653): 17.7 ± 0.75 µM
CL (In vivo pharmacokinetics; oral at 10 mg/kg, n = 3): 128 ± 11 mL/min/kg
AUC0–∞ (In vivo pharmacokinetics; oral at 10 mg/kg, n = 3, 10 mg/kg): 1307.71 ± 116.74 μg/L∗h
AUC(0-inf) (In vivo pharmacokinetics; male, rat, plasma, iv, 10 mg/kg, i.v. at 10 mg/kg, n = 3): 5150 ± 482 ng·h/mL
AUC(0-inf) (In vivo pharmacokinetics; male, rat, plasma, po, 10 mg/kg, oral at 10 mg/kg, n = 3): 1310 ng·h/mL
Cmax (In vivo pharmacokinetics; [4]): 10500 ng/mL
Tmax (In vivo pharmacokinetics; [4]): 0.03 h
clearance (In vivo pharmacokinetics; [4]): 32.5 mL/min/kg
half-life (In vivo pharmacokinetics; [4]): 1.72 ± 0.67 h
bioavailability (In vivo pharmacokinetics; male, rat, plasma, oral at 10 mg/kg vs i.v. 10 mg/kg, read-out: F (oral bioavailability)): 24.9 ± 4.32%
Cmax (In vivo pharmacokinetics; [5]): 373 ± 49.6 ng/mL
Tmax (In vivo pharmacokinetics; [5]): 2 h
half-life (In vivo pharmacokinetics; [5]): 2.35 ± 1.23 h
